The record followed here is ChEMBL document CHEMBL1144039, “Antioxidant capacity of BO-653, 2,3-dihydro-5-hydroxy-4,6-di-tert-butyl-2,2-dipentylbenzofuran, and uric acid as evaluated by ORAC method and inhibition of lipid peroxidation” (2008).

A short description of experiment [1]: Antioxidant activity assessed as oxygen radical scavenging activity in presence of human plasma by ORAC method relative to control. Format: functional, cell-free.
The next experiment deals with Plasma. The experiment in a line: Antioxidant activity in human plasma assessed as inhibition of cholesteryl ester hydroperoxide formation after 60 mins relative to control. Format: functional.

Molecules are shown by their SMILES.

For the compound `CCCCCC1(CCCCC)Cc2c(cc(C(C)(C)C)c(O)c2C(C)(C)C)O1` [BO-653], the Ratio AUC in experiment [1] worked out at 1.23. For the same compound, the Ratio in the experiment on Plasma is recorded as 0.23.

Turning to `Oc1nc(O)c2nc(O)[nH]c2n1` [URIC ACID], the Ratio AUC in experiment [1] was 1.52. For the same compound, the Ratio in the experiment on Plasma is 0.78.
